Assay results as given in PubChem BioAssay (NCI).
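Where inhibition never reached the appropriate level, the endpoint shown equals the highest concentration tested. Otherwise, values were interpolated linearly from a five-concentration, 48-hour dose response in 96-well plates. The concentration for full growth arrest is given as TGI.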 Where a SMILES comes first, the peptide text is derived from it. [ ]: non-standard residue; d: D form. The star is where a group is joined. Bn2Val = CC(C)[C@@H](C(=O)*)N(Cc1ccccc1)Cc1ccccc1; NHPiperonyl = c1cc2c(cc1CN*)OCO2; NMeV = CN[C@H](C(=O)O)C(C)C; dNMeA = CN[C@H](C)C(=O)O

Experiments:
Test in all cases: inhibition of tumour cell growth, NCI panel, 48 h
HT29 colon = system: HT29 colon
UACC-257 melanoma = system: UACC-257 melanoma
K-562 leukemia = system: K-562 leukemia
T-47D breast = system: T-47D breast
SN12C renal = system: SN12C renal
HCT-15 colon = system: HCT-15 colon
PC-3 prostate = system: PC-3 prostate
U251 CNS = system: U251 CNS
DU-145 prostate = system: DU-145 prostate
OVCAR-8 ovarian = system: OVCAR-8 ovarian
NCI-H226 lung = system: NCI-H226 lung
HCC-2998 colon = system: HCC-2998 colon
LOX IMVI melanoma = system: LOX IMVI melanoma
KM12 colon = system: KM12 colon
SW-620 colon = system: SW-620 colon
MALME-3M melanoma = system: MALME-3M melanoma
CCRF-CEM leukemia = system: CCRF-CEM leukemia
HOP-62 NSCLC = system: HOP-62 NSCLC
HS 578T breast = system: HS 578T breast

| SMILES | TGI (HT29 colon) [µM] | TGI (UACC-257 melanoma) [µM] | TGI (K-562 leukemia) [µM] | TGI (T-47D breast) [µM] | TGI (SN12C renal) [µM] | TGI (HCT-15 colon) [µM] | TGI (PC-3 prostate) [µM] | TGI (U251 CNS) [µM] | TGI (DU-145 prostate) [µM] | TGI (OVCAR-8 ovarian) [µM] | TGI (NCI-H226 lung) [µM] | TGI (HCC-2998 colon) [µM] | TGI (LOX IMVI melanoma) [µM] | TGI (KM12 colon) [µM] | TGI (SW-620 colon) [µM] | TGI (MALME-3M melanoma) [µM] | TGI (CCRF-CEM leukemia) [µM] | TGI (HOP-62 NSCLC) [µM] | TGI (HS 578T breast) [µM] |
| --- | --- | --- | --- | --- | --- | --- | --- | --- | --- | --- | --- | --- | --- | --- | --- | --- | --- | --- | --- |
| CSC1=C(C(=O)N(COCC[Si](C)(C)C)c2ccccc2Br)CCC(C(C)(C)C)C1 (stereo not drawn) | 64.4 | 47.8 | 29.1 | 34.3 | 27.8 | 26.1 | > 100 | 24 | > 100 | > 100 | 34.4 | 27 | 29.2 | 42.2 | 41 | 46.4 | > 100 | 53.2 | – |
| NC(CCCNc1ccc(O)cc1)C(=O)O (stereo not drawn) | > 100 | > 70.5 | > 72.1 | – | > 70.6 | > 60.7 | – | > 100 | – | > 62.2 | > 100 | > 100 | 33.3 | > 100 | 42.7 | > 100 | > 71.1 | > 100 | – |
| O=C1c2ccccc2-c2nc(-c3cccs3)cc3c2c1nc1ccccc13 | 62.6 | 37.3 | > 100 | – | > 100 | 57.1 | > 100 | > 100 | 31 | > 100 | > 100 | 68 | 35.9 | > 100 | 31 | 23.1 | > 100 | 77.6 | 90 |
| CC[C@]1(Cc2ccc(OC)c(OC)c2)C=[N+]([O-])O[C@H](OC2CCCCC2c2ccccc2)[C@@H]1OC(C)=O (stereo partly drawn) | > 100 | > 100 | > 100 | > 100 | > 100 | > 100 | > 100 | > 100 | > 100 | > 100 | > 100 | > 100 | > 100 | > 100 | > 100 | > 100 | 68.3 | > 100 | – |
| O=C(c1ccc(-c2ccccc2)cc1)N(Cc1cccnc1)C(=S)N(Cc1cccnc1)C(=O)c1ccc(-c2ccccc2)cc1 | > 100 | > 100 | > 100 | – | > 100 | > 100 | > 100 | > 100 | > 100 | > 100 | > 100 | > 100 | > 100 | > 100 | > 100 | > 100 | > 100 | > 100 | > 100 |
| O=C1OCCC12CN(Cc1ccccc1)N=N2 (stereo not drawn) | > 100 | – | > 100 | > 100 | > 100 | > 100 | > 100 | > 100 | > 100 | > 100 | – | > 100 | – | > 100 | > 100 | > 100 | – | > 100 | – |
| CC(C)NC1CCCCC2c3cc(F)ccc3[C@]12O (stereo partly drawn) | > 100 | > 100 | > 100 | – | > 100 | > 100 | – | > 100 | – | > 100 | > 100 | > 100 | > 100 | > 100 | > 100 | > 100 | > 100 | > 100 | – |
| Nc1c(C(=O)c2ccc(Cl)cc2)[nH]c(Nc2ccc(Cl)cc2)c1C(=S)Nc1ccccc1 | 18 | 31.8 | 17.8 | > 100 | 22.5 | 16.9 | 41.2 | 9.73 | 24.1 | 11 | 19.4 | 7.7 | 16.6 | 31.5 | 51.9 | 36.1 | > 100 | 20.5 | – |
| Nc1cc(N2CCOCC2)nc(=O)n1-c1ccccc1 | > 100 | > 100 | > 100 | > 100 | > 100 | > 100 | > 100 | > 100 | > 100 | > 100 | > 100 | > 100 | > 100 | > 100 | > 100 | – | > 100 | > 100 | – |
| CC(=O)OC1COC(n2c(O)c(N=Nc3ccc([N+](=O)[O-])cc3)c3cc(Br)c([N+](=O)[O-])cc32)C(OC(C)=O)C1OC(C)=O (stereo not drawn) | > 100 | > 100 | > 100 | – | > 100 | > 100 | – | > 100 | – | > 100 | > 100 | > 100 | > 100 | > 100 | > 100 | > 100 | > 100 | > 100 | – |
| CN(C)CCNC(=O)c1ccccc1Nc1c(Cl)cccc1Cl | 20 | 18.5 | 36.2 | – | 28.7 | 27.9 | – | 23.9 | – | 27.8 | 29.4 | 23.7 | 25.8 | – | 30.2 | – | 30.4 | 27.2 | – |
| O=C(N/C(=C\NC1=NCCS1)C(=O)N1CSC[C@@H]1C(=O)O)c1ccccc1 | > 100 | > 100 | > 100 | > 100 | > 100 | > 100 | > 100 | > 100 | > 100 | > 100 | > 100 | > 100 | > 100 | > 100 | > 100 | – | > 100 | > 100 | – |
| O=C1CSC(c2c[nH]c3ccccc23)N1c1cccc([N+](=O)[O-])c1 (stereo not drawn) | > 100 | > 100 | > 100 | > 100 | > 100 | > 100 | > 100 | > 100 | > 100 | > 100 | – | > 100 | > 100 | > 100 | > 100 | – | > 100 | > 100 | – |
| COC(=O)C12OCC34C(CC5C(C)C6=CC(=O)OC6=CC5(C)C3C(O)C1O)OC(=O)C(OC(C)=O)C24 (stereo not drawn) | 33.9 | 30 | 54.3 | – | 39.9 | 42.5 | – | 57.8 | – | 34.1 | 53.2 | 30 | 37 | 32.6 | 26.2 | 21.9 | 32.4 | 53.2 | – |
| Cc1ccc([N+]2=NC(c3ccc([N+](=O)[O-])cc3)=NN(c3ccccc3)C2)cc1 | > 100 | > 100 | > 100 | – | > 100 | > 100 | – | > 100 | – | > 100 | > 100 | > 100 | > 100 | – | > 100 | > 100 | > 100 | > 100 | – |
| CC(/C=C/c1ccccc1)=N\N=C(C)\C=C\c1ccccc1 | > 100 | > 100 | > 100 | – | > 100 | > 100 | – | > 100 | – | > 100 | > 100 | > 100 | > 100 | > 100 | > 100 | > 100 | > 100 | > 100 | – |
| COc1c(N2CCCCC2)c2c(=O)c3ccccc3oc2c2cc(C)oc12 | 38.6 | > 100 | > 100 | – | 84.8 | > 100 | 51.5 | > 100 | 77.5 | > 100 | 45.4 | > 100 | 86.5 | 62.4 | > 100 | 81 | > 100 | > 100 | 79.6 |
| CCN1C(=O)/C(=C\c2coc3ccccc3c2=O)SC1=S | > 100 | > 100 | > 100 | – | > 100 | > 100 | – | > 100 | – | > 100 | > 100 | > 100 | > 100 | > 100 | > 100 | > 100 | > 100 | > 100 | – |
| c1ccc(C2(c3ccccc3)S/C(=C3/SC(c4ccccc4)(c4ccccc4)c4ccccc43)c3ccccc32)cc1 | > 100 | > 100 | > 100 | – | > 100 | > 100 | > 100 | > 100 | > 100 | > 100 | > 100 | > 100 | > 100 | > 100 | > 100 | > 100 | > 100 | > 100 | > 100 |
| CC1(C)CC(=O)c2c([nH]c(=S)c(C#N)c2-c2ccc(Br)cc2)C1 | > 100 | > 100 | > 100 | – | > 100 | > 100 | > 100 | > 100 | > 100 | > 100 | > 100 | > 100 | > 100 | – | > 100 | > 100 | > 100 | > 100 | > 100 |
| O=S(Nc1ccccc1)c1ccccc1Oc1ccccc1 (stereo not drawn) | > 100 | > 100 | > 100 | – | > 100 | > 100 | > 100 | > 100 | > 100 | > 100 | > 100 | 87.1 | > 100 | > 100 | > 100 | > 100 | > 100 | > 100 | 19.6 |
| COc1cc(C(=O)O)cc2c1[nH]c1ccccc12 | > 25 | – | > 25 | – | > 25 | > 25 | – | > 25 | – | > 25 | > 25 | > 25 | > 25 | > 25 | > 25 | > 25 | > 25 | > 25 | – |
| Clc1ccc(/C=c2\nc(-c3ccccc3)n3c2nc2ccccc23)cc1 | > 100 | > 100 | > 100 | – | > 100 | > 100 | 87.8 | > 100 | > 100 | > 100 | > 100 | – | > 100 | > 100 | > 100 | > 100 | > 100 | > 100 | > 100 |
| O=C(O)COc1cc(-c2ccccc2F)nc2cc3c(cc12)OCO3 | > 100 | > 100 | > 100 | > 100 | > 100 | > 100 | > 100 | > 100 | > 100 | > 100 | > 100 | > 100 | > 100 | > 100 | > 100 | > 100 | > 100 | > 100 | – |
| CC(C)[C@H](NC(=O)[C@H](C(C)C)N(Cc1ccccc1)Cc1ccccc1)C(=O)N(C)[C@H](C(=O)N1CCC[C@H]1C(=O)N(C)[C@H](C)C(=O)NCc1ccc2c(c1)OCO2)C(C)C (Bn2Val-V[NMeV]P[dNMeA]-NHPiperonyl) | 9.04 | > 100 | 54 | – | – | > 100 | 89.9 | 43 | > 33.2 | > 100 | > 100 | 37.1 | > 100 | > 100 | > 100 | > 65.3 | 8.72 | > 100 | > 100 |
| S=C(Nc1ccc(Cl)cc1)c1ccc(CN2CCCCC2)s1 | 19.5 | > 100 | 13.9 | – | 39.2 | > 100 | 73.4 | > 100 | > 100 | 27.1 | – | 21.6 | 6.14 | 56.8 | > 100 | – | 12.5 | – | > 100 |
| COc1ccc2c(c1)CC[C@@H]1C2CC[C@]2(C)C(=N\O)/C(=N/O)CC12 (stereo partly drawn) | 5.14 | 32.9 | 36 | – | 36.5 | 26.2 | – | 28.7 | – | 33.7 | 27.1 | 37.8 | 6.11 | 42.7 | 40.2 | 32.5 | 29.9 | 26 | – |
